From US8067583B2, “Method for synthesizing furanosteroids” (Trustees of Dartmouth College, priority 2006, dated 2011)
pIC50: −log10 of the molar value.

What was measured:
[1] = storage stability of isolated isomers; format: physicochemical
Method: A solution of 50.0 mg (0.136 mmol, 1.0 eq) of aldehyde 18 in 13.6 mL of dry CH2Cl2 was stirred in a 25 mL round bottom flask at room temperature under argon. To this solution was slowly added 271 μL (1.0 M in CH2Cl2, 0.271 mmol, 2.0 eq) of TiCl4. […] The solution was then diluted with CH2Cl2 and washed with H2O. The aqueous portion was then extracted three times with CH2Cl2. The combined organic fractions were then dried over MgSO4 and concentrated. Purification via silica gel chromatography (hexane/EtOAc) gave 20.4 mg (59%) of the syn-isomer 19-Syn and 5.4 mg (16%) of the anti-isomer 19-Anti as unstable brown oils. […] The decomposition was of a general nature and none of the stable, known retro-aldol product was observed.

PI3-kinase = conditions: read-out: IC50, inhibitor of PI3-kinase; cited from earlier work
PI3K-Beta = PI3K-Beta (Homo sapiens, UniProt P42338); assay: activity against PI3K-Beta; format: biochemical
PI3K-Beta, sequence (P42338 whole entry, species assumed): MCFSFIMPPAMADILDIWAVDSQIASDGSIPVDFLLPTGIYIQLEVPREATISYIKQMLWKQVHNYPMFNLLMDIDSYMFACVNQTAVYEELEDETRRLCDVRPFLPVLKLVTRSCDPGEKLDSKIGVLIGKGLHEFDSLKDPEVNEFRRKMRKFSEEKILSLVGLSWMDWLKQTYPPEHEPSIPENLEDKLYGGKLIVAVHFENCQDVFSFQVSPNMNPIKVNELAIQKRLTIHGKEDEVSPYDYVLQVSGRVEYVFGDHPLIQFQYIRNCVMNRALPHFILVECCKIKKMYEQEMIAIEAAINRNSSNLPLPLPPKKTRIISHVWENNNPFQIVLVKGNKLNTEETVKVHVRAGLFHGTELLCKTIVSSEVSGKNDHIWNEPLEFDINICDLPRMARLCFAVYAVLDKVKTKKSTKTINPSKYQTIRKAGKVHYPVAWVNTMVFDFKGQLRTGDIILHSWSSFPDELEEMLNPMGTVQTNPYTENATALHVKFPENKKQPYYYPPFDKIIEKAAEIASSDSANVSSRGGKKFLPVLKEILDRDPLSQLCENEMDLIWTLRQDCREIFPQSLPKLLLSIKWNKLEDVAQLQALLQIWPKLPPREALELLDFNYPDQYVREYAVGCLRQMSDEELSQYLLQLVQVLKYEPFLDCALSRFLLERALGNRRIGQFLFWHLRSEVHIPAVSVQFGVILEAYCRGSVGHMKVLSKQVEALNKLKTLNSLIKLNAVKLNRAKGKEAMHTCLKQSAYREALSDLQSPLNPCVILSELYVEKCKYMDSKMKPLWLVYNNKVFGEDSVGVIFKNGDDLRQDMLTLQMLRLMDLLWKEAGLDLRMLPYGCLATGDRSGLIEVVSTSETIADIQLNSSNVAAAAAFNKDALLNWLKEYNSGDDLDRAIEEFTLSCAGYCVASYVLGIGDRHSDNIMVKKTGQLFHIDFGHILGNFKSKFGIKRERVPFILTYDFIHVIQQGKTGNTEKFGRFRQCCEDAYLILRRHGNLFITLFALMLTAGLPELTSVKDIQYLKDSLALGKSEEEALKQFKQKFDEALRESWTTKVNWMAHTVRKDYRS
PI3K-Beta, sequence (P27986 whole entry partner, species assumed): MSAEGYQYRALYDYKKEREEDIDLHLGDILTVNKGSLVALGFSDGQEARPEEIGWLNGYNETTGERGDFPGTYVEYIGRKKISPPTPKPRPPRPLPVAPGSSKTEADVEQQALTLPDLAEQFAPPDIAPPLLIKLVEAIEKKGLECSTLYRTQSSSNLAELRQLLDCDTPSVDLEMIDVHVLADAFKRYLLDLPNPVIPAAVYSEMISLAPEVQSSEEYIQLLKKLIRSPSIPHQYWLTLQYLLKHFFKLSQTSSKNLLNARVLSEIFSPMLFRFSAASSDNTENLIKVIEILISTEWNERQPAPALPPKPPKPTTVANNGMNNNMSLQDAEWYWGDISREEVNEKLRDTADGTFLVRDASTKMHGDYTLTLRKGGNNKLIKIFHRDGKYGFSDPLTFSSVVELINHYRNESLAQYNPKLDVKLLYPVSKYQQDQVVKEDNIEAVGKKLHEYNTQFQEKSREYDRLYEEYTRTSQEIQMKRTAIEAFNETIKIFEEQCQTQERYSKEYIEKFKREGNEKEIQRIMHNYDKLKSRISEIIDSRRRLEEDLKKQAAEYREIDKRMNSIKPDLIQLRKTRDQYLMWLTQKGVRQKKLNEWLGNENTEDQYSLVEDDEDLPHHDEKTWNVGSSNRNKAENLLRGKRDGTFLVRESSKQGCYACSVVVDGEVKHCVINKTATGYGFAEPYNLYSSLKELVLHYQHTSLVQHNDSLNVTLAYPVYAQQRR
Excerpt: Novel furanosteroids produced according to the present method can be screened for biological activity using any conventional method. For example, PI3 kinase assays are disclosed by Yuan, et al. ((2005) Bioconjugate Chem, 16 (3): 669-675) and Fruman, et al. ((1999) Science 283:393-7). Assays for monitoring the assembly of peptide-MHC class II complexes (Song, et al. (1997) International Immunology 9:1709-1722) and mast cell exocytosis (Marquardt, et al. (1996) J. Immunol. 156:1942-1945) are known in the art as are assays for monitoring cell proliferation.

[2] = biological target: mammalian Polo-like kinase (Homo sapiens, UniProt P53350); conditions: cited from earlier work
mammalian Polo-like kinase, sequence (P53350 whole entry): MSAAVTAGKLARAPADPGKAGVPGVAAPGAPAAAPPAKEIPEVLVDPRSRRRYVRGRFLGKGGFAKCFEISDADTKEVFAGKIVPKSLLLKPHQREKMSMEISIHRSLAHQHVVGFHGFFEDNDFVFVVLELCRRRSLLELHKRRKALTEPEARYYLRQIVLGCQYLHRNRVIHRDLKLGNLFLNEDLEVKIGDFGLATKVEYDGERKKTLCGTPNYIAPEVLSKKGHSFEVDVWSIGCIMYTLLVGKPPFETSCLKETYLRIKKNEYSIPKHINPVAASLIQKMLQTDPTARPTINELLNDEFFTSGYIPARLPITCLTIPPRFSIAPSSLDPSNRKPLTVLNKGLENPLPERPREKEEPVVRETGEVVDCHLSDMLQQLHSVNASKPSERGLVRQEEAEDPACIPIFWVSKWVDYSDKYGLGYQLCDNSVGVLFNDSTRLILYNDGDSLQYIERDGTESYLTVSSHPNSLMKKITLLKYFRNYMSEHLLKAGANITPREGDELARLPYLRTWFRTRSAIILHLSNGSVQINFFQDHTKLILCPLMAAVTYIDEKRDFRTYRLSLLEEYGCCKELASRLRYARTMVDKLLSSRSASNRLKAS

For `CC12c3ccccc3C(=O)c3occ(c31)CC[C@H]2O` (stereo in doubt) [Compound 19-Syn, 1-Hydroxy-10b-methyl-1,2,3,10b-tetrahydro-5-oxa-acephenanthrylen-6-one], the “stability in a refrigerator” value ([1]; refrigerator) was “stable in a refrigerator for several weeks” and the “stability at room temperature” value ([1]; room temperature, prolonged periods, isolated brown oils) was “Neither isomer was stable at room temperature for prolonged periods”.

For `COC[C@H]1OC(=O)c2coc3c2[C@@]1(C)C1=C(C3=O)[C@@H]2CC[C@H](O)[C@@]2(C)C[C@H]1OC(C)=O` [17β-OH wortmannin], the pIC50 (PI3-kinase) is listed as 9.30.

For `C[C@]12COC(=O)c3coc(c31)C(=O)c1ccccc12` [Compound 47], the “activity against PI3K-Beta” value (PI3K-Beta) was “sub-micromolar”.

For `COC[C@H]1OC(=O)c2coc3c2C1(C)C1=C(C3=O)[C@@H]2CCC(=O)C2(C)C[C@H]1OC(C)=O` (some centres unmarked) [wortmannin], the “inhibition of mammalian Polo-like kinase” value [2] is listed as “inhibit”.
